How the values were obtained:
HT1080 cells = test: Lipid droplet staining with BODIPY 493/503; type: cell-based, human; details: CPBA 100 μM; T863 10 μM and PF-06424439 5 μM; 16 h
Experimental: HT1080 cells were seeded on glass coverslips (15,000 cells per well of 12-well plate) in complete DMEM, and incubated for 16 h with 100 μM CPBA or with 0.1% of the DMSO solvent control, in the absence or presence of inhibitors of DGAT1 and DGAT2 (10 μM T863/iDGAT1; 5 μM PF-06424439/iDGAT2). Cells were fixed with 4% para-formaldehyde, lipid droplets were stained with the neutral lipid droplet stain BODIPY 493/503 (2 μM, 30 min), and nuclei were counterstained with 4′,6-diamidino-2-phenylindole (DAPI). Cells were mounted with Immu-Mount (Fisher Scientific), and imaged by fluorescence microscopy on a THUNDER imager (THUNDER Imager Live Cell & 3D Cell Culture & 3D Assay system, Leica DMI8; Leica Microsystems), using a 63× objective.
We next investigated the impact of CPBA on triglyceride levels and ferroptosis sensitivity by first imaging lipid droplets with the neutral lipid stain BODIPY 493/503.
The diglyceride acyltransferase isoforms 1 and 2 (DGAT1, DGAT2) are required to catalyze the formation of triglycerides from diacylglycerol and acyl-CoA.

[1] = tested on: GPX4-KO/FSP1-OE HT1080 cells; test: Viability of FSP1-dependent GPX4-KO cells with serial dilutions of CPBA, no FINs; type: cell-based, human; details: GPX4-KO, FSP1-dependent cells treated with CPBA
Experimental: The following HT1080 fibrosarcoma cell lines were generated using CRISPR/Cas9 technology, as previously described (Doll et al., 2019): HT1080 GPX4-knockout (KO) cells (maintained in the presence of 100 μM α-tocopherol); HT1080 GPX4 knockout cells overexpressing FSP1 (GPX4-KO/FSP1-OE); GPX4-KO cells overexpressing FSP1 and re-expressing GPX4 (GPX4-KO/FSP1-OE/GPX4-OE); HT1080 FSP1-WT or FSP1-KO cells; and HT1080 FSP1-KO cells reconstituted with either FSP1-WT or FSP1-G2A. LOX-IMVI (BRAF V600E heterozygous human melanoma cells) expressing either the Venus mock vector or FSP1-Venus (Doll et al., 2019) were grown in RPMI-1640 supplemented with 10% FCS, 2 mM L-glutamine and Pen/Strep.
Next, we tested the effect of CPBA on ferroptotic cell death in GPX4-deficient HT1080 cells whose survival depends on the expression of FSP1 in order to suppress ferroptosis in the absence of GPX4. GPX4 knockout cells overexpressing FSP1 (GPX4-KO/FSP1-OE), or GPX4-KO cells overexpressing FSP1 and re-expressing GPX4 (GPX4-KO/FSP1-OE/GPX4-OE) were incubated with serial dilutions of CPBA. Note that no ferroptosis inducers (FINs) were added. Protein expression was confirmed by Western Blot as described above (see FIG. 11).

Compound | lipid droplets (HT1080 cells) | prevention of CPBA-induced cell death [1]
CS(=O)(=O)O.O=C([C@@H]1CCCN(c2ccc3[nH]c(C4(n5cc(Cl)cn5)CC4)nc3n2)C1)N1CCCC1 [PF-06424439] | blocked lipid droplet formation both in DMSO- and in CPBA-treated cells | –
CC1(C)Oc2ncnc(N)c2N=C1c1ccc([C@H]2CC[C@H](CC(=O)O)CC2)cc1 [T863] | blocked lipid droplet formation both in DMSO- and in CPBA-treated cells | –
Clc1cccc(CN=C2Nc3ccccc3NC23CCNCC3)c1 [liproxstatin-1, reference compound] | – | cell death is prevented by liproxstatin-1
